Results reported in patent US20030139391A1 (priority 2000, published 2003).
Marks after values point to notes of the source that are not given here.

Tested on: Patients diagnosed with Alzheimer's Disease
Assay: ADAS-cog/11 in 5-month slow-titration trial
Type: in vivo, human
Source text: Subjects in the Placebo group received 21 weeks (5 months) of placebo medication.
All patients were monitored throughout the study, with follow-up and cognitive evaluation at four weeks, three months and five months after the start of the study.
The ADAS consists of two parts—a cognitive subscale and a behavioral subscale. The behavioral subscale was not be used in this study. The cognitive subscale, the ADAS—cog-11, consisted of Word Recall and Word Recognition memory tests, Object and Finger Naming, Commands, Constructional Praxis, Ideational Praxis, Orientation, Remembering Test Instructions, Spoken language Ability, Comprehension of Spoken language and Word Finding Difficulty was the primary variable in this study.
To reduce variability due to circadian fluctuations in cognitive status the ADAS was done always at the same time of the day, preferably before noon. Only a trained ADAS rater performed the test. Ideally the ADAS rater was not involved in the treatment of the subject and should have no access to AE (adverse event) reporting.
The ADAS was performed at visits 1, 2, 3, 4 and 5 (screening, baseline, week 4, week 13 and month 5 or upon early discontinuation of trial medication intake). For word recall and word recognition two parallel wordlists, list A and list B were employed. List A was used at visits 1 and 3, List B at visits 2, 4, and 5 or upon early discontinuation of trial medication intake. For practical reasons the words for word recognition was presented only once. The total score of the 11 cognitive items on the original ADAS cognitive subscale (ADAS-cog/11, Range: 0-70) was recorded.
For continuous data, a two-way analysis of variance (ANOVA) model with treatment and investigator as factors were used to compare the treatment groups for the change from baseline data. The interaction between treatment and investigator was examined. The impact of the baseline score on change from baseline was evaluated. […] If the parametric methods were deemed inappropriate (normality assumption violated), nonparametric methods such as two-way ANOVA on ranked data, Van Elteren test, controlling for investigator, was used. Following ANOVA, Fisher's LSD procedure was used for pairwise comparisons between each galanthamine group and the placebo group. A linear contrast on the main effect for treatment was used to test the dose response relationship.

## COc1ccc2c3c1O[C@H]1C[C@@H](O)C=C[C@@]31CCN(C)C2 [GAL, galantamine]
8 mg/day
  Responders, ADAS-cog/11 change ≦ 0 points at Month 5: %: 46.5%
  Responders, ADAS-cog/11 change ≦ 0 points at Month 5: n: 47
  Responders, ADAS-cog/11 change ≦ −4 points at Month 5: %: 25.7%
  Responders, ADAS-cog/11 change ≦ −4 points at Month 5: n: 26
  Responders, ADAS-cog/11 change ≦ −7 points at Month 5: %: 13.9%
  Responders, ADAS-cog/11 change ≦ −7 points at Month 5: n: 14
  Responders, ADAS-cog/11 change ≦ −10 points at Month 5: %: 5.9%
  Responders, ADAS-cog/11 change ≦ −10 points at Month 5: n: 6
16 mg/day
  Responders, ADAS-cog/11 change ≦ 0 points at Month 5: %: 65.4%
  Responders, ADAS-cog/11 change ≦ 0 points at Month 5: n: 136
  Responders, ADAS-cog/11 change ≦ −4 points at Month 5: %: 35.6%
  Responders, ADAS-cog/11 change ≦ −4 points at Month 5: n: 74
  Responders, ADAS-cog/11 change ≦ −7 points at Month 5: %: 15.9%
  Responders, ADAS-cog/11 change ≦ −7 points at Month 5: n: 33
  Responders, ADAS-cog/11 change ≦ −10 points at Month 5: %: 7.2%
  Responders, ADAS-cog/11 change ≦ −10 points at Month 5: n: 15
24 mg/day
  Responders, ADAS-cog/11 change ≦ 0 points at Month 5: %: 64.9%
  Responders, ADAS-cog/11 change ≦ 0 points at Month 5: n: 137
  Responders, ADAS-cog/11 change ≦ −4 points at Month 5: %: 37.0%
  Responders, ADAS-cog/11 change ≦ −4 points at Month 5: n: 78
  Responders, ADAS-cog/11 change ≦ −7 points at Month 5: %: 22.3%
  Responders, ADAS-cog/11 change ≦ −7 points at Month 5: n: 47
  Responders, ADAS-cog/11 change ≦ −10 points at Month 5: %: 10.4%
  Responders, ADAS-cog/11 change ≦ −10 points at Month 5: n: 22
LOCF, 8 mg/day, no titration
  Change from baseline in ADAS-cog/11 at Month 5, Mean (SE): 0.4 (0.52)▪
LOCF, 16 mg/day after 4-week titration
  Change from baseline in ADAS-cog/11 at Month 5, Mean (SE): −1.4 (0.35)***^♭
LOCF, 24 mg/day after 8-week titration
  Change from baseline in ADAS-cog/11 at Month 5, Mean (SE): −1.4 (0.39)***^♭
Observed case, 8 mg/day, no titration
  Change from baseline in ADAS-cog/11 at Month 5, Mean (SE): 0.1 (0.58)*
Observed case, 16 mg/day after 4-week titration
  Change from baseline in ADAS-cog/11 at Month 5, Mean (SE): −1.5 (0.40)***^†
Observed case, 24 mg/day after 8-week titration
  Change from baseline in ADAS-cog/11 at Month 5, Mean (SE): −1.8 (0.44)***^†
